Measurements from patent publication US11519922B2, “Methods for identifying risk of chemotherapy-induced cardiotoxicity and targeted medical intervention” (Detroit R&D, Inc., priority 2018, dated 2022).
“Also recorded” adds a separate entry of the source.

Columns and labels:
H9c2 rat cardiomyocytes [1] = assay: BNP mRNA levels in cells by qRT-PCR; type: cell-based; conditions: 1 μM DOX 2 hr, normalized by β-actin mRNA
Description: FIGS. 1A and 1B show the effect of doxorubicin (DOX) on H9c2 rat cardiomyocytes. Cells were treated for 2 hr with media containing 1 μM DOX, washed and kept for 2, 6 and 24 hr in media without DOX. BNP mRNA levels in H9c2 cells were assessed by qRT-PCR (A) and cell media was collected and extracted with ethyl acetate for 14,15-DHET analyses using ELISA kit (Detroit R&D) (B). *p<0.05;
Normalized BNP levels were decreased 6 hr and 24 hr after 2 hr of DOX treatment (p<0.05) (FIG. 1A) when cardiomyocyte hypertrophy occurred ([…]).
BNP mRNA was assessed in rat H9c2 cells. […] Results were normalized using β-actin mRNA levels using a rat specific primer (13). Our results have shown that BNP levels were decreased 6 and 24 hr after 2 hr of DOX treatment (FIG. 1A) when cell hypertrophy was detected (FIG. 2).

[2] = tested on: plasma of breast cancer patient; assay: 14,15-DHET nanowell label-free analysis of patient plasma; type: in vivo, human; conditions: Patient #4, 10-fold diluted plasma, after vs before 3 months DOX, n=4
Description: The plasma samples of Patient #4 (10-fold diluted) who developed DOX-dependent cardiotoxicity 3 and 6 months after completion of the 3 months DOX treatment were obtained before and after 3 months DOX treatment (FIG. 4).
The bare gold surface of the 8-channel 90 nm or 200 nm nanowell electrode (Detroit R&D) was coated with a self-assembly monolayer (SAM) by incubating the electrode with 10 mM of 11-mercaptoundecanoic acid (MUA) (Sigma) for 1 hr at room temperature and activated using 50 mM EDC and 50 mM NHS. The 14,15-DHET IgG (Detroit R&D) (FIG. 6A) or TnI IgG (Detroit R&D) (FIG. 6B) in PBS (2.5 μg/ml) was added to the EDC/NHS-activated electrode. The IgG level to obtain optimal results was experimentally obtained by using electrodes coated with various concentrations of IgG ranging 1 to 10 μg/ml.

[3] = tested on: plasma of breast cancer patients; assay: Plasma troponin I (TnI) in breast cancer patients after DOX treatment; type: in vivo, human
[4] = DOX 3 months followed by one-year trastuzumab, HER2-positive breast cancer patients, ref (5); cited from earlier work
[5] = tested on: soluble epoxide hydrolase (sEH) in H9c2 cells; assay: sEH protein expression by Western blot; type: cell-based, rat; conditions: 1 μM DOX 2 hr, cells harvested at 6 hr; normalized by beta-actin
Description: FIGS. 5A and 5B show the effect of doxorubicin (DOX) on soluble epoxide hydrolase (sEH) expression in rat H9c2 cardiomyocytes cells (A) and NAG-1 (MIC-1, GDF-15), a plasma cardiotoxicity biomarker (B). Panel A, cells harvested at 6 hr with (Lane 2) and without (Lane 1) treatment of doxorubicin (DOX) (2 hr, final concentration 1 μM). Protein expression of sEH, GAPDH and beta-actin expressed in the cells were assessed by Western blot analysis. Expression levels of sEH were normalized by beta-actin protein levels and Panel B, Western blot analysis carried out under non-reducing/non-denaturing condition for NAG-1 protein in plasma samples obtained from healthy subjects (pooled plasma sample, control) and 3 breast cancer patients with cardiovascular disease (cardiotoxicity, Innovative Research);
Increased sEH protein levels after DOX treatment was detected by Western blot analysis using sEH antibody (Detroit R&D) (FIG. 5A).

H9c2 rat cardiomyocytes [6] = assay: MTT cell viability assay; type: cell-based; conditions: 1 μM DOX 2 hr, then fresh media 24 hr; compared to untreated control cells
Description: Cell viability was determined using the 3-[4,5-dimethylthiazol-2-yl]-2,5-diphenyltetrazolium bromide (MTT) assay (13) for cells incubated with and without 1 μM of DOX in media for 2 hr followed by fresh media for another 24 hours. The DOX treated cells maintained more than 90% cell viability compared to untreated control cells.
Rat H9c2 cell line was purchased from American Type Culture Collection (Manassas, Va.) and cultured on polystyrene culture plates in a humidified incubator at 37° C. in an atmosphere of 5% CO2 and 95% air. The H9c2 cells were grown in high glucose DMEM supplemented with 4.5 g/l glucose, 0.15% sodium bicarbonate, 0.11% sodium pyruvate, 10% fetal bovine serum, […], 100 IU/ml penicillin and 10 μg/ml streptomycin. When cells reached 80-90% confluency, media was replaced with media containing 1 μM DOX (Sigma) dissolved in DMSO. Cells were treated for 2 hr and collected immediately (0 hr) or washed and kept for 2, 6 and 24 hr in media without DOX.
The effect of DOX on cell viability was determined by 3-[4,5-dimethylthiazol-2-yl]-2,5-diphenyltetrazolium bromide (MTT) assay (13).

H9c2 rat cardiomyocytes [7] = assay: Cell hypertrophy assay (cell surface area, ImageJ); type: cell-based; conditions: 1 μM DOX 2 hr
Description: Cells were treated for 2 hr with media containing 1 μM DOX, washed and kept for 2, 6 and 24 hr in media without DOX. Cell sizes (cell surface area) were measured using image J software. Results expressed as mean±SD (n=6-44);
Increased cell surface area (hypertrophy) was found at 6 hr and 24 hr after DOX treatment (p<0.05) whereas no changes were observed after 2 hr (˜100 cells measured/group) (FIG. 2).
For cell hypertrophy assay, rat H9c2 cells grown overnight in a plate containing a glass cover slip were fixed at 2, 6 and 24 hr after 2 hr 1 μM DOX treatment and stained with hematoxylin and eosin and images were taken using a using a Zeiss Axiovert microscope. ImageJ software was used to measure the surface area of the cells.

rat heart tissue = assay: Histological analysis of heart tissue of DOX-treated rats; type: in vivo; conditions: DOX 3 mg/kg/week 2 weeks, 2-week recovery, 40× magnification
Description: Heart tissues were dehydrated, imbedded in paraffin and sliced. Slices were incubated in Mayer's hematoxylin reagent (ScyTek) for 5 min and covered with bluing reagent (ScyTek) for 15 seconds and eosin Y (ScyTek) solution for 3 minutes. Images of the rat cardiomyocyte were taken using a Zeiss Axiovert 200 microscope with RT Insight camera and SPOT Advanced Imaging software in 40× magnification at the Microscopy and Imaging Facility at Wayne State University.
Presence of vacuolization in heart tissue, a sign of cardiotoxicity (14), was not observed at 40× magnification.

COc1cccc2c1C(=O)c1c(O)c3c(c(O)c1C2=O)C[C@@](O)(C(=O)CO)C[C@@H]3O[C@H]1C[C@H](N)[C@H](O)[C@H](C)O1 [DOX, doxorubicin]
increase of BNP mRNA (H9c2 rat cardiomyocytes [1]; 2 hr recovery): ~4 fold | BNP mRNA levels (H9c2 rat cardiomyocytes [1]; 6 hr and 24 hr recovery): decreased; also recorded: lower than control | increase of plasma 14,15-DHET level (nanowell) [2]: ~20 fold | plasma troponin I (TnI) levels ([3]; Patient #3, 3 months after 3 months of DOX treatment): increased | plasma troponin I (TnI) levels ([3]; Patient #4, 3 months after 3 months of DOX treatment): decreased | plasma troponin I (TnI) levels ([3]; Patients #1, #2 and #5 (no cardiotoxicity), 3 months after 3 months of DOX treatment): increased | cardiac dysfunction including symptomatic heart failure (HF) [4]: 18% | sEH protein levels [5]: Increased | cell viability (H9c2 rat cardiomyocytes [6]): more than 90% | cell surface area (hypertrophy) (H9c2 rat cardiomyocytes [7]; 2 hr recovery): no changes | cell surface area (hypertrophy) (H9c2 rat cardiomyocytes [7]; 6 hr and 24 hr recovery): increased | vacuolization / heart tissue damage (histology) (rat heart tissue): no vacuolization or heart tissue damage; also recorded: not observed
